Test results as given in patent US6916818B2, “Azaindoles having serotonin receptor affinity” (NPS Allelix Corp., priority 1999, dated 2005).

The compounds below were run against T1, human 5HT6 receptor (Homo sapiens, UniProt P50406) (assay: Functional assay: serotonin-stimulated adenyl cyclase (cAMP EIA) in HEK 293 cells expressing 5HT6). Settings: test compound 100 nM and 10 μM along with serotonin.
T1 construct: expressed in transfected cells
Format: cell-based
Experimental: The 5HT6 receptor responds to serotonin and other agonists by increasing adenyl cyclase mediated production of cyclic AMP. Particular test compounds were assayed for their effect on adenyl cyclase activity using the procedure described below.
Compounds acting as antagonists at the 5HT6 receptor will antagonize the agonist effect of serotonin and thus, will block the serotonin-induced increase in adenyl cyclase activity.
HEK 293 cells stably expressing the human 5HT6 receptor were plated in 6 well plates in DMEM (Dulbecco's Modified Eagle Medium)/F12 (Nutrient Mixture F12—Ham) media with 10% FCS (fetal calf serum) and G418 (Geneticen Disulfate, 500 ug/ml), and incubated at 37° C. in a CO2 incubator. The cells were allowed to grow to about 70% confluence before use in the assay.
The culture medium of each well was removed, and the wells were washed once with serum free media. Then 2 ml of SFM+IBMX medium (SFM with 0.5 mM IBMX, 3-isobutyl-1-methylxanthine, 0.1% ascorbic acid and 10 mM pargyline) was added to each well and the wells were incubated at 37° C. for 10 min. Following incubation, the SFM+IBMX medium was removed from each well and fresh SFM+IBMX media was added to the wells separately with one of a) serotonin (1 μM final concentration); b) test compound (100 nM and 10 μM, to test for agonist activity); and c) test compound (100 nM and 10 μM) along with serotonin ([…], to test for antagonist activity). Basal adenyl cyclase activity was determined from wells with only SFM+IBMX media added.
The cells were then incubated at 37° C. for 30 minutes in a CO2 incubator. […] The pellets were discarded and the supernatants were stored at 4° C. until assayed for cAMP concentration. cAMP content for each extract was determined in duplicate by EIA (enzyme-immunoassay) using the Amersham Biotrak cAMP EIA kit (Amersham RPN 225). Final results were expressed as % basal response for agonists and % reversal of serotonin response for antagonists.
The total stimulation of adenyl cyclase by serotonin (So) was determined as the difference in concentration of cAMP in the serotonin-treated cells (Cd) and the basal-treated cells (Cf). […]
The net stimulation (S) of basal adenyl cyclase by an agonist test compound was determined as the difference in cAMP concentration in the drug-treated cell (C) and the basal-treated cells (Cf). […]
The net stimulation (Ss) of basal adenyl cyclase by serotonin in the presence of an antagonist test compound was determined as the difference in cAMP concentration in the serontonin-drug-treated cells (Cs) and the basal-treated cells (Cf). […]
The ability of the antagonist test compound to reverse the serotonin stimuation of adenyl cyclase activity (% reversal, % R) was determined by the formula: % R=(1−Ss/So)×100

T1 sequence (P50406 whole entry): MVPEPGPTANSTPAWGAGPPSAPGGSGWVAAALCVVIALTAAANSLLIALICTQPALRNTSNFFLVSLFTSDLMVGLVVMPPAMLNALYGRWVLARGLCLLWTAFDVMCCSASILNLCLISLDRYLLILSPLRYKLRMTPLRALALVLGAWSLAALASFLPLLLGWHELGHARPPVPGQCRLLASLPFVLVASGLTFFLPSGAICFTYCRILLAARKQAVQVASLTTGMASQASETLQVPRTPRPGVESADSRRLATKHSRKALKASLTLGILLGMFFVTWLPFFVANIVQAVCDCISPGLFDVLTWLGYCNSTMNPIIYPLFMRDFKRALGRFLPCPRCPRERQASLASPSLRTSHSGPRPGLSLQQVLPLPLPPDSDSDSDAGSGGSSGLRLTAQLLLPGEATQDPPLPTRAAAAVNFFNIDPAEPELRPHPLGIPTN

| SMILES | reversal of serotonin stimulation of adenyl cyclase (antagonist activity) |
| --- | --- |
| O=S(=O)(c1cccc2ccccc12)n1cc(C2=CCN3CCCC3C2)c2cnccc21 (stereo not shown) [3-(1,2,3,5,8,8a-Hexahydro-7-indolizinyl)-1-(1-naphthalenesulfonyl)-5-azaindole] | able to reverse the serotonin stimulation of adenyl cyclase |
| O=S(=O)(c1cccc2ccccc12)n1cc(C2=CCN3CCCC3C2)c2cccnc21 (stereo not shown) [3-(1,2,3,5,8,8a-Hexahydro-7-indolizinyl)-1-(1-naphthalenesulfonyl)-7-azaindole] | able to reverse the serotonin stimulation of adenyl cyclase |
| O=S(=O)(c1ccccc1)n1cc(C2=CCN3CCCC3C2)c2cnccc21 (stereo not shown) [3-(1,2,3,5,8,8a-Hexahydro-7-indolizinyl)-1-benzenesulfonyl-5-azaindole] | able to reverse the serotonin stimulation of adenyl cyclase |
| O=S(=O)(c1ccccc1)n1cc(C2=CCN3CCCC3C2)c2cccnc21 (stereo not shown) [3-(1,2,3,5,8,8a-Hexahydro-7-indolizinyl)-1-benzenesulfonyl-7-azaindole] | able to reverse the serotonin stimulation of adenyl cyclase |
